These results are taken from PMC2903749 (ACS medicinal chemistry letters, 2010).

One assay deals with proline racemase. The conditions noted are these: cited from earlier work.
The next assay concerns the target Glutamate racemase (GR) (Bacillus subtilis, UniProt P94556). Briefly: biochemical.

Molecules are shown by their SMILES. Read-outs that look alike come from different tables or passages of the source.

Chain of Glutamate racemase (GR) (P94556 whole entry): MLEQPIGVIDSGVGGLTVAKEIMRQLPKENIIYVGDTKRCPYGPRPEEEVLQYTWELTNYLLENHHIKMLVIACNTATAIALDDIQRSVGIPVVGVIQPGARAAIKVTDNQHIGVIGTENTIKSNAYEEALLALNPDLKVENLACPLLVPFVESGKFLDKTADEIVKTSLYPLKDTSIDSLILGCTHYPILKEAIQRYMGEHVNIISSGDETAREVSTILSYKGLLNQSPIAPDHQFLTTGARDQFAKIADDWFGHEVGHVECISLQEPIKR

For `O=C(O)c1ccc[nH]1` [PYC, pyrrole-2-carboxylic acid], the Ki on proline racemase (read-out: Ki1, first of two binding states) is 4.6 µM; at proline racemase (read-out: Ki2, second of two binding states), 30 µM.
For `NC(=O)CC[C@H](N)C(=O)O` [glutamine], on Glutamate racemase (GR), the Ki worked out at 50000 µM.
